pKi: −log10 of the molar value.
Assays:
[1] = molecular target: T1, Glutamate receptor ionotropic, AMPA (Rattus norvegicus, UniProt P19490+P19491+P19492+P19493); assay: Displacement of [3H]AMPA from Ionotropic glutamate receptor AMPA.; type: protein-complex assay
[2] = molecular target: Glutamate receptor ionotropic, NMDA 1 (Rattus norvegicus, UniProt P35439); assay: Displacement of [3H]glycine from glycine site on the NMDA receptor.
Glutamate NMDA receptor = assay: Compound was tested for its ability to displace [3H]glycine from glycine site on the N-methyl-D-aspartate glutamate receptor; type: protein-complex assay
[3] = molecular target: T1, Glutamate receptor ionotropic, AMPA; assay: Compound was tested for its ability to displace [3H]-AMPA from AMPA receptor; type: protein-complex assay

SMILES	pKi [1]	pKi [2]	pKi (Glutamate NMDA receptor)	pKi [3]
CCCCc1nnc2c(=O)[nH]c3cc(Cl)c(Cl)cc3n12	5.77	5.83	–	–
O=c1[nH]c2cc(F)c(F)cc2n2cnnc12	< 5.00	< 5.00	–	–
Oc1nc2cc(Cl)c(Cl)cc2c2ccnn12	< 5.00	< 5.00	–	–
CCCc1nnc2c(O)nc3cc(Cl)c(Cl)cc3n12	–	5.41	–	–
O=c1[nH]c2cc(Cl)ccc2c2ccnn12	< 5.00	< 5.00	–	–
O=[N+]([O-])c1cc2nc(O)c3nncn3c2cc1[N+](=O)[O-]	–	–	5.29	5.26
Cc1nnc2c(=O)[nH]c3cc(Cl)c(Cl)cc3n12	5.35	< 5.00	–	–
Oc1nc2cc(Cl)c(Cl)cc2n2c(C(F)(F)F)nnc12	< 5.00	< 5.00	–	–
O=[N+]([O-])c1cc2nc(O)c3nnnn3c2cc1[N+](=O)[O-]	–	–	< 5.00	< 5.00
Oc1nc2cc(Cl)c(Cl)cc2nc1O [2,3-DIHYDROXY-6,7-DICHLOROQUINOXALINE]	5.79	6.68	–	–
O=c1[nH]c2cc([N+](=O)[O-])c([N+](=O)[O-])cc2[nH]c1=O [DNQX]	–	–	6.41	–

The next lines start with results.

pKi [1]	pKi [2]	SMILES	pKi (Glutamate NMDA receptor)	pKi [3]
5.32	5.34	CCc1nnc2c(O)nc3cc(Cl)c(Cl)cc3n12	–	–
< 5.00	< 5.00	O=[N+]([O-])c1ccc2c(c1)nc(O)c1nnnn12	–	–
< 5.00	< 5.00	Oc1nc2cc(Cl)c(Cl)cc2n2nnnc12	–	–
5.33	6.20	Oc1nc2cc(Cl)c(Cl)cc2n2cnnc12	–	–
< 5.00	< 5.00	O=c1[nH]c2ccc([N+](=O)[O-])cc2n2nnnc12	–	–
6.00	5.13	O=[N+]([O-])c1ccc2c(c1)nc(O)c1nncn12	–	–
< 5.00	< 5.00	Oc1nc2cc(Cl)c(Cl)cc2n2c(-c3ccccc3)nnc12	–	–
5.49	5.55	Oc1nc2cc(Cl)cc(Cl)c2n2cnnc12	–	–
5.13	5.90	Oc1nc2cc(Cl)c(Cl)cc2n2ccnc12	–	–
